Drawing on a melting point compilation (Tetko et al.; mined from patent text by program, amines drawn as free bases though some values may be those of a salt), this text covers melting point for 89 molecules.

Consider `N#Cc1cccc(C2=Nc3ccc(-c4ccc(-c5ccccc5)cc4)cc3NC(=O)C2)c1`, for which the melting point (as a rule, the temperature of the solid-liquid transition) lay in the range of 251 to 253 °C.
In the case of `Clc1ccc(-c2nccs2)cc1` it was 169 to 170 °C; in that of `Fc1ccc(CNc2ccc(-n3nc(C(F)(F)F)cc3C(F)(F)F)cc2)cc1`, 92 to 94 °C.
In the case of `Clc1ccc(N2CCN(CCc3ccccc3)CC2)nn1` it was 140 °C.
In the case of `N#CC1c2ccccc2C(Nc2ccc(Cl)cc2)=NN1C(=O)c1ccccc1` (centres undefined) it was 201 to 202 °C.
`CC(=N)NN(C)C(=O)OC(C)(C)C` had a melting point of 187 to 189 °C.
In the case of `CCCCCc1nc(N(C)C)nc(C)c1O` it was 61 to 62 °C.
The figure for `Cc1ccc(C(=O)NC(NC(=S)Nc2cccnc2)c2ccccc2)cc1` (centres undefined) is 156 to 158 °C; for `CC(C)n1nc(-c2ccc(O)cc2O)c2cccc(C(F)(F)F)c21` it is 61 to 63 °C.
The molecule `O=C(O)Cc1c(C(=O)c2ccc(Cl)cc2)[nH]c2ccc(Cl)cc12` came in with a melting point of 220 to 224 °C.
Regarding `CC(=O)OCC1OC(Oc2nc[nH]c2C(N)=O)C(OC(C)=O)C(OC(C)=O)C1OC(C)=O` (centres undefined), the melting point fell in the range of 234 to 235 °C.
The figure for `CNc1c(F)c(C)c2c(=O)c(C(=O)O)cn(-c3cc(N)c(F)cc3F)c2c1C` is 247 to 253 °C; for `O=C1CCn2c(-c3cccs3)nc3c(Cl)ccc1c32` it is 252 to 254 °C; for `Cn1cc(-c2ccccc2)c(=O)c(-c2ccc3ccccc3c2)c1` it is 101 to 105 °C.
Turning to `CC(C)(Cn1cnc2c(N)nc3ccccc3c21)OCCS(C)(=O)=O`, the melting point lay within 261 to 264 °C.
The figure for `COc1ccc(CC[N+](=O)[O-])cc1OC` is 50 to 52 °C; for `CC(=O)c1ccc2c(c1)oc(=O)n2CCCN1CCC(c2noc3cc(F)ccc23)CC1` it is 152 to 154 °C.
The figure for `Cc1c(C(=O)Nc2ccc(N3CCN(C4CCOCC4)CC3)c(C#N)c2)cnn1-c1ccc(Br)cc1` is 288 °C; for `C#CCOc1cc(Oc2cc(Cl)ccc2Cl)ncn1` it is 87.7 °C.
In the case of `COc1nc(O)nn1C(C)C` it was 102 to 103 °C.
In turn, `OC1CCc2cc3ccccc3n2C1` (centres undefined) yielded a melting point of 99 to 100 °C.
The figure for `CC1(C)CCC(C)(C)c2cc(-c3cc(-c4ccc(C(=O)N5CCOCC5)cc4)ccc3-c3ccccc3)ccc21` is 223 °C; for `O=C1NC(=O)C(N(CC#Cc2ccc(F)cc2)c2ccc(CCNCC(O)COc3ccc(OCc4ccccc4)cc3)cc2)S1` (centres undefined) it is 99 to 101 °C.
The figure for `C=CCOC(=O)c1c(C)nc2c(cnn2CCCC#N)c1N` is 86 °C; for `Nc1n[nH]c2cc(C(=O)C=NO)ccc12` it is 199 to 201 °C.
In the case of `Cc1c(C(=O)c2sc(Nc3ccc(S(N)(=O)=O)cc3)nc2N)ncn1C` it was 293 to 294 °C; in that of `c1ccc(CNC2CN(C(c3ccccc3)c3ccccc3)C2)cc1`, 73 to 75 °C.
In the case of `O=C(c1ccc(I)cc1)c1ccc2noc(-c3cccc(Cl)c3)c2c1`, the melting point was found to be 196 °C.
The figure for `O=NCNC1=Nc2ccc(Br)cc2C(c2ccccn2)=NC1` is 102 to 106 °C.
In the case of `CC(C)C[C@H](NC(=O)Cc1csc2ccccc12)C(=O)N[C@@H](Cc1ccccc1)C(=O)CSCc1ccco1` it was 150 to 153 °C; in that of `CC(C(N)=O)c1ccc2c(c1)CCc1ccccc1C2=O` (centres undefined), 175 °C; in that of `O=c1[nH]c2cc(Cl)ccc2c(=O)c2sccc12`, greater than 280 °C.
With `CN(Cc1ccccc1)C1c2ccccc2CC1O` (centres undefined), the melting point stood at 64 °C.
As to `C#Cc1ccnc(NC(C)C)n1`, the melting point fell in the range of 84 to 85 °C.
The figure for `CN1C(=O)C(c2ccc(OC(F)F)cc2)(C2CCCCC2)N=C1N` (centres undefined) is 178 to 180 °C.
In turn, `CC(C)(C)NC(=O)[C@@H](N)C(C)(C)C` came in with a melting point of 78 to 80 °C.
The figure for `COCCOC(=O)c1cncn1C1CCCc2ccccc21` (centres undefined) is 66.8 °C; for `Nc1c(Cl)cc(C(O)CNCCCCCCOCCCc2ccc(C(=O)O)cc2)cc1Cl` (centres undefined) it is 190 to 191 °C.
For the molecule `O=C1c2ccccc2C(=O)N1Cc1cc2cc(Cl)cc(-c3ccccc3)c2o1`, the melting point fell in the range of 163 to 166 °C.
The figure for `Nc1ccc2c(c1)CC(NS(=O)(=O)c1ccc(Cl)cc1)C2` (centres undefined) is 145 to 147 °C.
Regarding `CCn1ncc2c3noc(-c4cccc(OC)c4)c3cnc21`, the melting point was 170 to 171 °C.
Molecule `O=C(O)c1ccc(-c2ccc(S(=O)(=O)N3CCCC(CO)C3)cc2)[nH]c1=O` (centres undefined) displayed a melting point of 300 to 304 °C.
Take `CC1(O)c2ccccc2CCC1OS(=O)(=O)CC12CCC(CC1=O)C2(C)C` (centres undefined): the melting point was determined as 105 °C.
The figure for `O=[N+]([O-])c1ccc(-c2ccc(-c3ccc([N+](=O)[O-])cc3C(F)(F)F)o2)c(C(F)(F)F)c1` is 158 to 159 °C; for `CC(C)(C)NC(=O)[C@@H]1CC(=O)CN1C(=O)[C@@H](O)[C@H](Cc1ccccc1)NC(=O)[C@H](CC(N)=O)NC(=O)OCc1ccccc1` it is 116 to 120 °C.
The figure for `O=C(O)COc1cc(F)c(-c2ccccc2)cc1C(=O)NCc1cccc([N+](=O)[O-])c1` is 210 to 211 °C; for `CCc1nc2ccccc2c(=O)n1-c1ccccc1C` it is 93 to 94 °C.
The figure for `COc1ccnc(CCc2nc3cc(-c4ccc(S(=O)(=O)N5CCCN(C)CC5)cc4)cnc3[nH]2)c1` is 160 to 162 °C; for `NC(=O)c1cc(NCc2ccc(Cl)cc2)c([N+](=O)[O-])cc1[N+](=O)[O-]` it is 207 to 210 °C.
For `CCc1nc2ccc(Br)cc2c2ccc(F)cc12`, the melting point amounted to 111 °C.
In the case of `CC(=O)CSc1nnnn1C`, the melting point turned out to be 31 °C.
In the case of `Cc1c(NC(=O)c2cc3c(s2)CCCC3)cccc1-c1cc(N)c(=O)n(C)c1` it was 210 to 211 °C; in that of `Cc1cc2c(c(Cc3c[nH]cn3)c1)OC(C)(C)OC2`, 152 to 155 °C.
The figure for `CCOC(=O)c1cnn(-c2cccc(S(=O)(=O)N(C)C)n2)c1Cl` is 117 to 120 °C.
`O=S(=O)(Nc1nc2ncc(Cl)cn2n1)c1ccccc1Cl` showed a melting point of 256 to 260 °C.
The figure for `C=Cc1ccc(CSCCNC(=O)CCCC(=O)O)cc1` is 118 to 119 °C.
In the case of `Nc1nc(N)c2ncn(COC(CO)CO)c2n1` it was 176 to 177 °C.
Molecule `O=C1NC(c2c[nH]c3ccccc23)C(=O)N1CCCN1CCCCC1` (centres undefined) registered a melting point of 233 to 234 °C.
For `CC(=NNc1ccc(C2=NNC(=O)CC2)cc1)c1cscn1`, the melting point is greater than 300 °C.
Molecule `CC1CC1n1cc(C(=O)O)c(=O)c2cc(F)c(N3CCNCC3)cc21` (centres undefined) had a melting point of 110 to 120 °C.
The figure for `CC(C(=O)O)c1ccc(-c2ccc(Br)cc2)c(F)c1` (centres undefined) is 133 to 135 °C; for `CN(C)C(=S)SC(C[N+](=O)[O-])c1cccs1` (centres undefined) it is 88 to 90 °C.
In turn, `CN(Cc1ccc2c(Br)c(OCC#N)ccc2c1)C(=O)c1oc2ccccc2c1CCc1ccccc1` displayed a melting point of 51 to 55 °C.
The molecule `Nc1cc([N+](=O)[O-])c(N)cc1Cl` displayed a melting point of 157 °C.
The figure for `O=C(O)c1ccccc1Sc1c(O)c2ccc(Cl)cc2[nH]c1=O` is greater than 300 °C; for `C#Cc1cccc(NC(=O)CCCC(=O)O)c1` it is 150 to 154 °C.
In the case of `CC(=O)n1c(=O)n(-c2ccc3c(c2)OCO3)c2ncccc21` it was 211 to 212 °C.
The molecule `CC1CC(C)(C)Nc2ccc3c(c21)C(c1ccc(Cl)cc1)Oc1ccccc1-3` (centres undefined) gave a melting point of 158 to 159 °C.
`Cc1ccc(-n2cccc2)c(N)c1` registered a melting point of 89 to 90 °C.
Molecule `O=C(O)Cn1cccc1` displayed a melting point of 88 to 90 °C.
The figure for `CCOc1cc(C(F)(F)F)nc(N)n1` is 114 to 116 °C; for `COC(=O)c1nc(-c2ccccc2)n2c1CN=C(c1ccccc1F)c1cc(Cl)ccc1-2` it is 208 to 209 °C; for `CC(C(=O)O)C1CCC(C)(CCC2(C)C(C)CCC3(C)C(C)(C)CCCC23O)OO1` (centres undefined) it is 157 to 159 °C.
In the case of `COc1ccc2c(c1Br)CCC1C(=O)N(C)C(=O)C21` (centres undefined) it was 196 to 199 °C.
As to `CC(=O)c1ccc2c(c1)oc(=O)n2N1CCC(c2noc3cc(F)ccc23)CC1`, the melting point is 152 to 154 °C.
The molecule `CC(C)(C)OC(=O)N[C@@H](Cc1ccccc1)C(=O)N1CCN(C(c2ccc(F)cc2)c2ccc(F)cc2)CC1` had a melting point of 54 to 74 °C.
The figure for `Cc1nc(-n2ccc(OCc3ccc(C(F)(F)F)o3)cc2=O)sc1C(=O)NCc1cccnc1` is 240 to 242 °C; for `O=C(O)c1ccccc1OCCN1CCC(c2cn(CCC3OCCO3)c3ccccc23)CC1` it is 118 to 120 °C; for `O=[N+]([O-])c1ccc2oc(-c3sccc3CN3CCOCC3)nc2c1` it is 143 to 145 °C.
With `COc1cc(-c2csc(-c3ccccc3)n2)cc2oc(=O)c(C)c(C)c12`, the melting point is 152 to 154 °C.
Molecule `O=C(Nc1nc(-c2ccco2)c(C(=O)C2CCOCC2)s1)c1ccc(CN2CCCCC2)cc1` had a melting point of 160 to 162 °C.
Consider `NC(=NCC(F)(F)F)Nc1ccnc(CSCCN2C(=O)c3ccccc3C2=O)n1`, for which the melting point is 167 to 168 °C.
The figure for `CC(C)c1cc(C(C)C)c(CC(=O)NS(=O)(=O)Oc2c(C(C)C)cc(NCCO)cc2C(C)C)c(C(C)C)c1` is 149 to 152 °C; for `Cn1c2c(c3c(Cl)cccc31)CCOC2(C)CC(=O)O` (centres undefined) it is 105 to 110 °C; for `O=C(Nc1cccc2c(N=P(c3ccccc3)(c3ccccc3)c3ccccc3)ccnc12)c1c(Cl)cccc1Cl` it is 276 to 281 °C.
For the molecule `COc1cc2c(Nc3ccc(Cl)cc3F)ncnc2cc1OCc1ccccn1`, the melting point lay within 215 to 218 °C.
On to `COc1ccc(C(=O)NCC[C@@H](O)C(=O)O)cc1`, for which the melting point is 104 °C.
Consider `CC(COC(=O)NC(=O)C(c1ccccc1)c1ccccc1)c1ccccc1` (racemic), for which the melting point stood at 131 °C.
In the case of `CC(C)=C1C(=O)N(c2ccc(N)cc2)C(=O)/C1=C(\C)c1cc(C)oc1C` it was 209 to 211 °C.
